Where two headings read alike, the source gives them in different places.
How the values were obtained:
plasmin = molecular target: T1, plasmin (Homo sapiens, UniProt P00747); assay: In vitro plasmin stability assay; format: in vitro ADME; conditions: isolated enzyme plasmin
T1 construct: Tissue plasminogen factor (tPA), which generates plasmin from plasminogen
Method: At selected time points during the incubation, the ligands were extracted from 80 μL of assay matrix by treatment with 80 μL of 50% acetonitrile (ACN). The samples were filtered and analysed by UPLC to determine the amount of ligand remaining. LC-MS analysis was performed to confirm ligand integrity and identify cleavage sites.

[1] = tested on: HeLa cells stably expressing HaloGFP; assay: Chloroalkane penetration assay (CAPA), membrane permeability and cellular uptake; format: cell-based; conditions: CA-tagged ligands, 4 h at 37° C.; L-TAT and L-Arg9; mean ± SEM (Table 10, FIG. 7)
How it was run: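 Pulse-chase CAPA: HeLa cells with cytosolic HaloGFP exposed to serially diluted chloroalkane-tagged compound for 4 h at 37 °C, washed, chased with TAMRA-CA (5 μM) for 15 min, then read by flow cytometry. CP50 is half-maximal red fluorescence from normalized dose-response curves; signal falls as penetration rises.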

T1 sequence (P00747 581-810 limits assumed, species assumed): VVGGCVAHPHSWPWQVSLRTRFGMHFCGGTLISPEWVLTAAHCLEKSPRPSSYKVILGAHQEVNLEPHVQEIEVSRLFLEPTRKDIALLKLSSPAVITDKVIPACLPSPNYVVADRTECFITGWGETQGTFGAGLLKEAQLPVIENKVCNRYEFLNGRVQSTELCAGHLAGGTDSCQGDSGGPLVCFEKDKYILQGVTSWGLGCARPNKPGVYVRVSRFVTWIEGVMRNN
T1 sequence (P00747 97-580 partner limits assumed, species assumed): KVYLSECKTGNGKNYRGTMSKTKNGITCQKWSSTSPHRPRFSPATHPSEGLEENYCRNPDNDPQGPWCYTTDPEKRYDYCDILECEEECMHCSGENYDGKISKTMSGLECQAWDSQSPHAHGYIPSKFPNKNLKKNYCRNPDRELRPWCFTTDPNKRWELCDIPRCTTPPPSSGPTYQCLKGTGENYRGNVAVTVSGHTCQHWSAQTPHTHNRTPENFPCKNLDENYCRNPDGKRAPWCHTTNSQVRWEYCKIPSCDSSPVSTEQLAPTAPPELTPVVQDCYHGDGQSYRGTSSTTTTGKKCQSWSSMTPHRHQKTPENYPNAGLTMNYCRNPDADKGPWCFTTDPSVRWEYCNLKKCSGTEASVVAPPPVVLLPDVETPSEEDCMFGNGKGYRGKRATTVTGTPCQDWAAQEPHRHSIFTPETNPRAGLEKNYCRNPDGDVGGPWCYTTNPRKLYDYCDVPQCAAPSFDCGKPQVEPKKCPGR

| half-life at 100 μM (plasmin) | SMILES | also measured |
| --- | --- | --- |
| 24 h | CC[C@H](C)[C@H](NC(=O)CCOCCOCCN(CCOCCOCCC(=O)N[C@H](C(=O)N[C@@H](CCC(=O)O)C(=O)N[C@H](C(=O)N[C@@H](CC(=O)O)C(=O)N[C@H](C(=O)O)C(C)C)[C@@H](C)O)[C@@H](C)CC)C(=O)[C@@H](CCCNC(=N)N)NC(=O)[C@H](CCCNC(=N)N)NC(=O)[C@@H](CCCCN)NC(=O)[C@H](CCCCN)NC(=O)[C@@H](CCCNC(=N)N)NC(=O)CNC(=O)[C@@H](CCCNC(=N)N)NC(=O)[C@H](CCCNC(=N)N)NC(=O)[C@@H](CCCNC(=N)N)NC(C)=O)C(=O)N[C@@H](CCC(=O)O)C(=O)N[C@H](C(=O)N[C@@H](CC(=O)O)C(=O)N[C@H](C(=O)O)C(C)C)[C@@H](C)O [Compound 40] | – |
| 19.2 ± 3.38 h | CC(=O)N[C@@H](CCCNC(=N)N)C(=O)N[C@@H](CCCNC(=N)N)C(=O)N[C@@H](CCCNC(=N)N)C(=O)N[C@@H](CCCNC(=N)N)C(=O)N[C@@H](CCCNC(=N)N)C(=O)N[C@@H](CCCNC(=N)N)C(=O)N[C@@H](CCCNC(=N)N)C(=O)N[C@@H](CCCNC(=N)N)C(=O)N[C@@H](CCCNC(=N)N)C(=O)N(CCOCCOCCC(=O)N[C@@H](CCCCN)C(=O)N[C@@H](CCC(=O)O)C(=O)N[C@H](C(=O)N[C@H](C(=O)N[C@H](C(=O)O)C(C)C)[C@@H](C)O)[C@@H](C)O)CCOCCOCCC(=O)N[C@@H](CCCCN)C(=O)N[C@@H](CCC(=O)O)C(=O)N[C@H](C(=O)N[C@H](C(=O)N[C@H](C(=O)O)C(C)C)[C@@H](C)O)[C@@H](C)O [Compound 25] | – |
| 24 h | CC[C@H](C)[C@H](NC(=O)CCOCCOCCN(CCOCCOCCC(=O)N[C@H](C(=O)N[C@@H](CCC(=O)O)C(=O)N[C@H](C(=O)N[C@@H](CC(=O)O)C(=O)N[C@H](C(=O)O)C(C)C)[C@@H](C)O)[C@@H](C)CC)C(=O)[C@H](CCCCN)NC(=O)CCCNC(=O)CC[C@@H]1NC(=O)[C@@H](CCCNC(=N)N)NC(=O)[C@H](CCCNC(=N)N)NC(=O)[C@@H](CCCNC(=N)N)NC(=O)[C@H](CCCNC(=N)N)NC(=O)[C@H](Cc2ccc3ccccc3c2)NC(=O)[C@@H](Cc2ccccc2)NC(=O)[C@H](Cc2ccccc2)NC1=O)C(=O)N[C@@H](CCC(=O)O)C(=O)N[C@H](C(=O)N[C@@H](CC(=O)O)C(=O)N[C@H](C(=O)O)C(C)C)[C@@H](C)O [Compound 62] | – |
| 23.4 ± 2.07 h | CC[C@H](C)[C@H](NC(=O)CCOCCOCCN(CCOCCOCCC(=O)N[C@H](C(=O)N[C@@H](CO)C(=O)N[C@H](C(=O)N[C@@H](CC(=O)O)C(=O)N[C@H](C(=O)O)C(C)C)[C@@H](C)O)[C@@H](C)CC)C(=O)[C@H](CCCNC(=N)N)NC(=O)[C@H](CCCNC(=N)N)NC(=O)[C@H](CCCNC(=N)N)NC(=O)[C@H](CCCNC(=N)N)NC(=O)[C@H](CCCNC(=N)N)NC(=O)[C@H](CCCNC(=N)N)NC(=O)[C@H](CCCNC(=N)N)NC(=O)[C@H](CCCNC(=N)N)NC(=O)[C@H](CCCNC(=N)N)NC(C)=O)C(=O)N[C@@H](CO)C(=O)N[C@H](C(=O)N[C@@H](CC(=O)O)C(=O)N[C@H](C(=O)O)C(C)C)[C@@H](C)O [Compound 31] | – |
| 15.2 h | CC[C@H](C)[C@H](NC(=O)CCOCCOCCN(CCOCCOCCC(=O)N[C@H](C(=O)N[C@@H](CCC(=O)O)C(=O)N[C@H](C(=O)N[C@@H](CC(=O)O)C(=O)N[C@H](C(=O)O)C(C)C)[C@@H](C)O)[C@@H](C)CC)C(=O)[C@H](Cc1ccccc1)NC(=O)[C@H](CCC(N)=O)NC(=O)CNC(=O)[C@H](CCCNC(=N)N)NC(=O)[C@H](CC(C)C)NC(=O)[C@H](CC(C)C)NC(=O)[C@H](CCCNC(=N)N)NC(=O)[C@H](CC(C)C)NC(=O)[C@H](Cc1ccc(O)cc1)NC(=O)[C@@H](NC(=O)[C@H](CC(C)C)NC(=O)[C@@H]1CCCN1C(C)=O)[C@@H](C)CC)C(=O)N[C@@H](CCC(=O)O)C(=O)N[C@H](C(=O)N[C@@H](CC(=O)O)C(=O)N[C@H](C(=O)O)C(C)C)[C@@H](C)O [Compound 56] | – |
| 24 h | CC[C@H](C)[C@H](NC(=O)CCOCCOCCN(CCOCCOCCC(=O)N[C@H](C(=O)N[C@@H](CCC(=O)O)C(=O)N[C@H](C(=O)N[C@@H](CC(=O)O)C(=O)N[C@H](C(=O)O)C(C)C)[C@@H](C)O)[C@@H](C)CC)C(=O)[C@@H](CCCNC(=N)N)NC(=O)[C@@H](CCCNC(=N)N)NC(=O)[C@@H](CCCNC(=N)N)NC(=O)[C@@H](CCCNC(=N)N)NC(=O)[C@@H](CCCNC(=N)N)NC(=O)[C@@H](CCCNC(=N)N)NC(=O)[C@@H](CCCNC(=N)N)NC(=O)[C@@H](CCCNC(=N)N)NC(=O)[C@@H](CCCNC(=N)N)NC(C)=O)C(=O)N[C@@H](CCC(=O)O)C(=O)N[C@H](C(=O)N[C@@H](CC(=O)O)C(=O)N[C@H](C(=O)O)C(C)C)[C@@H](C)O [Compound 44] | – |
| – | CC[C@H](C)[C@H](NC(=O)CCOCCOCCN(CCOCCOCCC(=O)N[C@H](C(=O)N[C@@H](CCC(=O)O)C(=O)N[C@H](C(=O)N[C@@H](CC(=O)O)C(=O)N[C@H](C(=O)O)C(C)C)[C@@H](C)O)[C@@H](C)CC)C(=O)[C@@H](CCCNC(=N)N)NC(=O)[C@@H](CCCNC(=N)N)NC(=O)[C@@H](CCCNC(=N)N)NC(=O)[C@@H](CCC(N)=O)NC(=O)[C@@H](CCCNC(=N)N)NC(=O)[C@@H](CCCNC(=N)N)NC(=O)[C@@H](CCCCN)NC(=O)[C@@H](CCCCN)NC(=O)[C@@H](CCCNC(=N)N)NC(=O)CNC(=O)[C@@H](Cc1ccc(O)cc1)NC(C)=O)C(=O)N[C@@H](CCC(=O)O)C(=O)N[C@H](C(=O)N[C@@H](CC(=O)O)C(=O)N[C@H](C(=O)O)C(C)C)[C@@H](C)O [Compound 38] | half-life (plasmin; read-out: T1/2): 24 h |
| – | CC[C@H](C)[C@H](NC(=O)CCOCCOCCN(CCOCCOCCC(=O)N[C@H](C(=O)N[C@@H](CCC(=O)O)C(=O)N[C@H](C(=O)N[C@@H](CC(=O)O)C(=O)N[C@H](C(=O)O)C(C)C)[C@@H](C)O)[C@@H](C)CC)C(=O)[C@@H]1CC(=O)NC[C@H](NC(C)=O)C(=O)N[C@@H](CCCCN)C(=O)N[C@@H](C)C(=O)N2CCC[C@H]2C(=O)N[C@@H](CCC(=O)O)C(=O)N[C@@H]([C@@H](C)O)C(=O)N[C@@H](C)C(=O)N[C@@H](CC(C)C)C(=O)N1)C(=O)N[C@@H](CCC(=O)O)C(=O)N[C@H](C(=O)N[C@@H](CC(=O)O)C(=O)N[C@H](C(=O)O)C(C)C)[C@@H](C)O [Compound 60] | half-life at 100 μM (plasmin; read-out: T1/2): 24 h |
| – | CC(C)[C@H](NC(=O)[C@@H](NC(=O)[C@@H](NC(=O)[C@H](CCC(=O)O)NC(=O)[C@H](CCCCN)NC(=O)CCOCCOCCN(CCOCCOCCC(=O)N[C@@H](CCCCN)C(=O)N[C@@H](CCC(=O)O)C(=O)N[C@H](C(=O)N[C@H](C(=O)N[C@H](C(=O)O)C(C)C)[C@@H](C)O)[C@@H](C)O)C(=O)[C@H](CCCNC(=N)N)NC(=O)[C@H](CCCNC(=N)N)NC(=O)[C@H](CCCNC(=N)N)NC(=O)[C@H](CCC(N)=O)NC(=O)[C@H](CCCNC(=N)N)NC(=O)[C@H](CCCNC(=N)N)NC(=O)[C@H](CCCCN)NC(=O)[C@H](CCCCN)NC(=O)[C@H](CCCNC(=N)N)NC(=O)CNC(=O)[C@H](Cc1ccc(O)cc1)NC(=O)CCC(=O)NCCOCCOCCCCCCCl)[C@@H](C)O)[C@@H](C)O)C(=O)O [Compound 14] | CP50 [1]: 78.4 ± 3.9 µM |

From patent US20240245793A1, “PSD-95 INHIBITORS AND USES THEREOF” (priority 2021, published 2024)
